From patent publication US12077503B2, “Substituted cyclic amides and their use as herbicides” (FMC CORPORATION, priority 2015, dated 2024)

Columns and labels:
Assay type in all cases: in vivo
[1] = test system: pigweed (Amaranthus retroflexus); test: Test A preemergence
Source text: (§1) Seeds of plant species selected from barnyardgrass (Echinochloa crus-galli), Kochia (Kochia scoparia), ragweed (common ragweed, Ambrosia elatior), ryegrass, Italian (Italian ryegrass, Lolium multiflorum), crabgrass, large (Digitaria sanguinalis), giant foxtail (Setaria faberii), green foxtail (Setaria viridis), morningglory (Ipomoea spp.), pigweed (Amaranthus retroflexus), velvetleaf (Abutilon theophrasti), wheat (Triticum aestivum), and corn (Zea mays) were planted into a blend of loam soil and sand and treated preemergence with a directed soil spray using test chemicals formulated in anon-phytotoxic solvent mixture which included a surfactant.
(§2) At the same time, plants selected from these crop and weed species and also blackgrass (Alopecurus myosuroides), and Galium (catchweed bedstraw, Galium aparine) were planted in pots containing the same blend of loam soil and sand and treated with postemergence applications of test chemicals formulated in the same manner. Plants ranged in height from 2 to 10 cm and were in the one- to two-leaf stage for the postemergence treatment. Treated plants and untreated controls were maintained in a greenhouse for approximately 10 d, after which time all treated plants were compared to untreated controls and visually evaluated for injury. Plant response ratings, summarized in Table A, are based on a 0 to 100 scale where 0 is no effect and 100 is complete control. A dash (-) response means no test result.

[2] = test system: giant foxtail (Setaria faberii); test: Test A preemergence
Source text: as §1, §2

Kochia (Kochia scoparia) [3] = test: Test A preemergence
Source text: as §1, §2

[4] = test system: ragweed (common ragweed, Ambrosia elatior); test: Test A preemergence
Source text: as §1, §2

[5] = test system: ryegrass, Italian (Italian ryegrass, Lolium multiflorum); test: Test A preemergence
Source text: as §1, §2

[6] = test system: barnyardgrass (Echinochloa crus-galli); test: Test A preemergence
Source text: as §1, §2

[7] = test system: blackgrass (Alopecurus myosuroides); test: Test A postemergence; settings: postemergence; for Plant response rating, Blackgrass: 0 to 100 scale, 0 no effect, 100 complete control
Source text: as §1, §2

[8] = test system: pigweed (Amaranthus retroflexus); test: Test A postemergence; settings: postemergence; for Plant response rating, Pigweed: 0 to 100 scale, 0 no effect, 100 complete control
Source text: as §1, §2

[9] = test system: giant foxtail (Setaria faberii); test: Test A postemergence; settings: postemergence; for Plant response rating, Foxtail, Giant: 0 to 100 scale, 0 no effect, 100 complete control
Source text: as §1, §2

corn (Zea mays) = test: Test A postemergence; settings: postemergence; for Plant response rating, Corn: 0 to 100 scale, 0 no effect, 100 complete control
Source text: as §1, §2

Kochia (Kochia scoparia) [10] = test: Test A postemergence; settings: postemergence; for Plant response rating, Kochia: 0 to 100 scale, 0 no effect, 100 complete control
Source text: as §1, §2

[11] = test system: wheat (Triticum aestivum); test: Test A postemergence; settings: postemergence; for Plant response rating, Wheat: 0 to 100 scale, 0 no effect, 100 complete control
Source text: as §1, §2

[12] = test system: ragweed (common ragweed, Ambrosia elatior); test: Test A postemergence; settings: postemergence; for Plant response rating, Ragweed: 0 to 100 scale, 0 no effect, 100 complete control
Source text: as §1, §2

[13] = test system: Galium (catchweed bedstraw, Galium aparine); test: Test A postemergence; settings: postemergence; for Plant response rating, Galium: 0 to 100 scale, 0 no effect, 100 complete control
Source text: as §1, §2

[14] = test system: ryegrass, Italian (Italian ryegrass, Lolium multiflorum); test: Test A postemergence; settings: postemergence; for Plant response rating, Ryegrass, Italian: 0 to 100 scale, 0 no effect, 100 complete control
Source text: as §1, §2

[15] = test system: barnyardgrass (Echinochloa crus-galli); test: Test A postemergence; settings: postemergence; for Plant response rating, Barnyardgrass: 0 to 100 scale, 0 no effect, 100 complete control
Source text: as §1, §2

[16] = 125 g ai/ha, preemergence, 0 to 100 scale (0 no effect, 100 complete control)
[17] = Preemergence, 500 g ai/ha, visual injury approx. 10 d
[18] = 125 g ai/ha, visual injury rating on 0 to 100 scale (0 no effect, 100 complete control), approx. 10 d
[19] = Preemergence, 1000 g ai/ha, 0 is no effect, 100 is complete control

COC(=O)c1ccccc1NC(=O)C1C(=O)NCC1c1ccc(F)c(F)c1 (stereo not drawn) [Compound 417]
0: Plant response rating, Pigweed [1, 16] | Pigweed plant response rating (0 to 100 scale, 0 is no effect, 100 is complete control) [1, 17] | Plant response rating, Foxtail, Giant [2, 16] | Foxtail, Giant plant response rating (0 to 100 scale, 0 is no effect, 100 is complete control) [2, 17] | Plant response rating, Kochia (Kochia (Kochia scoparia) [3]; [16]) | Kochia plant response rating (0 to 100 scale, 0 is no effect, 100 is complete control) (Kochia (Kochia scoparia) [3]; [17]) | Plant response rating, Ragweed [4, 16] | Ragweed plant response rating (0 to 100 scale, 0 is no effect, 100 is complete control) [4, 17] | Plant response rating, Ryegrass, Italian [5, 16] | Ryegrass, Italian plant response rating (0 to 100 scale, 0 is no effect, 100 is complete control) [5, 17] | Plant response rating, Barnyardgrass [6, 16] | Barnyardgrass plant response rating (0 to 100 scale, 0 is no effect, 100 is complete control) [6, 17] | Blackgrass plant response rating [7, 18] | Plant response rating, Blackgrass ([7]; 500 g ai/ha) | Pigweed plant response rating [8, 18] | Plant response rating, Pigweed ([8]; 500 g ai/ha) | Foxtail, Giant plant response rating [9, 18] | Plant response rating, Foxtail, Giant ([9]; 500 g ai/ha) | Corn plant response rating (corn (Zea mays); [18]) | Plant response rating, Corn (corn (Zea mays); 500 g ai/ha) | Kochia plant response rating (Kochia (Kochia scoparia) [10]; [18]) | Plant response rating, Kochia (Kochia (Kochia scoparia) [10]; 500 g ai/ha) | Wheat plant response rating [11, 18] | Plant response rating, Wheat ([11]; 500 g ai/ha) | Ragweed plant response rating [12, 18] | Plant response rating, Ragweed ([12]; 500 g ai/ha) | Galium plant response rating [13, 18] | Plant response rating, Galium ([13]; 500 g ai/ha) | Ryegrass, Italian plant response rating [14, 18] | Plant response rating, Ryegrass, Italian ([14]; 500 g ai/ha) | Barnyardgrass plant response rating [15, 18] | Plant response rating, Barnyardgrass ([15]; 500 g ai/ha)

O=C(Nc1cccc(F)c1F)C1C(=O)N(CC=CCl)CC1c1cc(F)cc(F)c1 (stereo not drawn) [Compound 512]
80: Barnyardgrass plant response rating (0 to 100 scale) [6, 19] | Plant response rating, Barnyardgrass ([15]; 1000 g ai/ha)
0: Pigweed plant response rating (0 to 100 scale) [1, 19] | Kochia plant response rating (0 to 100 scale) (Kochia (Kochia scoparia) [3]; [19]) | Ragweed plant response rating (0 to 100 scale) [4, 19] | Ryegrass, Italian plant response rating (0 to 100 scale) [5, 19] | Plant response rating, Blackgrass ([7]; 1000 g ai/ha) | Plant response rating, Pigweed ([8]; 1000 g ai/ha) | Plant response rating, Corn (corn (Zea mays); 1000 g ai/ha) | Plant response rating, Kochia (Kochia (Kochia scoparia) [10]; 1000 g ai/ha) | Plant response rating, Wheat ([11]; 1000 g ai/ha) | Plant response rating, Ragweed ([12]; 1000 g ai/ha) | Plant response rating, Galium ([13]; 1000 g ai/ha) | Plant response rating, Ryegrass, Italian ([14]; 1000 g ai/ha)
90: Foxtail, Giant plant response rating (0 to 100 scale) [2, 19] | Plant response rating, Foxtail, Giant ([9]; 1000 g ai/ha)
